Assay results as given in patent publication US20250011299A1, “PYRIDAZINYL AMINO DERIVATIVES AS ALK5 INHIBITORS” (CHIESI FARMACEUTICI S.P.A., priority 2021, published 2025).

target: T1, human ALK5 (Homo sapiens, UniProt P36897); assay: ADP-GLO Kinases assay of ALK5 enzymatic activity; type: biochemical; conditions: purified recombinant human ALK5, TGFβ1 peptide substrate, pIC50 converted to pKi by Cheng-Prusoff, high ATP protocol (15 μM) for very potent compounds, 25° C.
T1 construct: human ALK5 (recombinant TGF β1 N-term GST-tagged, 80-end); GST (N); purchased
T1 sequence (P36897 80-503 limits assumed): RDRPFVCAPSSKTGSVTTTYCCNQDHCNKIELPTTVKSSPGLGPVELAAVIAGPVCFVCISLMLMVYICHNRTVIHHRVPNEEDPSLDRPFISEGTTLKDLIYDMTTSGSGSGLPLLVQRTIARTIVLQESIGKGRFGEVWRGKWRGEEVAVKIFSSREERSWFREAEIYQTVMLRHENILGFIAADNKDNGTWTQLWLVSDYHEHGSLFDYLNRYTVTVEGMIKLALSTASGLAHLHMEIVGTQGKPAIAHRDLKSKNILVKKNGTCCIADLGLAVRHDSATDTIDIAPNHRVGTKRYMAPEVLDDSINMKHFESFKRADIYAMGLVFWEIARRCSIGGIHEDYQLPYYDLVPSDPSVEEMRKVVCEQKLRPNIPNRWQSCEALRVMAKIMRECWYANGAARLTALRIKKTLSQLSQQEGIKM
Description: The enzymatic activity of compounds of the present invention was monitored measuring the formation of ADP using the ADP-GLO Kinases assay. Following the incubation of the purified enzyme, a substrate and ATP, the produced ADP was converted into ATP, which in turn was converted into light by Ultra-Glo Luciferase. The luminescent signal positively correlated with ADP amount and kinase activity. […] Compound and ALK5 kinase were mixed and incubated for 15 mins. […] After an incubation of 120 min, the reaction was stopped, and ADP production detected with ADP-Glo kit according to manufacturer's indications. […] After an incubation of 60 min, the kinase reaction was stopped, and ADP production detected with ADP-Glo kit according to manufacturer's indications. All reaction and incubation steps were performed at 25° C. and the assays were performed in 384-well format and validated using a selection of reference compounds tested in 11-point concentration-response curve. […] Results were expressed as pIC50 (negative logarithm of IC50) and subsequently converted to pKi (negative logarithm of […]) using the Cheng-Prusoff equation. The higher the value of pKi, the greater the inhibition of ALK5 activity.

First: O=C(Nc1cc(Nc2cc(-c3cc(Cl)ccc3F)nnc2OCCN2CCCC2)ccn1)C1CC1 [Example 54, N-(4-{[6-(5-chloro-2-fluorophenyl)-3-[2-(pyrrolidin-1-yl)ethoxy]pyridazin-4-yl]amino}pyridin-2-yl)cyclopropanecarboxamide]
Second: C[N+](C)(C)CCCOc1nnc(-c2cc(Cl)ccc2F)cc1Nc1ccnc(NC(=O)C2CC2)c1 [Example 58, (3-{[6-(5-chloro-2-fluorophenyl)-4-[(2-cyclopropaneamidopyridin-4-yl)amino]pyridazin-3-yl]oxy}propyl)trimethylazanium chloride]
The Ki of the first is lower: at most 0.1 nM for the first, 0.398 to 3.16 nM for the second. The first binds more tightly here.

`CN1CCN([C@H]2C[C@@H](C(=O)Nc3cc(Nc4cc(-c5cc(Cl)ccc5F)nnc4SCCO)ccn3)C2)CC1` [Example 83, Cis N-(4-{[6-(5-chloro-2-fluorophenyl)-3-[(2-hydroxyethyl)sulfanyl]pyridazin-4-yl]amino}pyridin-2-yl)-3-(4-methylpiperazin-1-yl)cyclobutane-1-carboxamide] and `CN1CCN([C@H]2C[C@@H](C(=O)Nc3cc(Nc4cc(-c5cc(Cl)ccc5F)nnc4SCC4COC(C)(C)O4)ccn3)C2)CC1` (stereo partly drawn) [Example 115, Cis N-(4-{[6-(5-chloro-2-fluorophenyl)-3-{[(2,2-dimethyl-1,3-dioxolan-4-yl)methyl]sulfanyl}pyridazin-4-yl]amino}pyridin-2-yl)-3-(4-methylpiperazin-1-yl)cyclobutane-1-carboxamide] cannot be ordered by Ki: at most 0.1 nM for the first, at most 0.1 nM for the second.

Compared with `CN1CCN(CCC(=O)Nc2cc(Nc3cc(-c4cc(Cl)ccc4F)nnc3S)ccn2)CC1` [Example 179, N-(4-{[6-(5-chloro-2-fluorophenyl)-3-sulfanylpyridazin-4-yl]amino}pyridin-2-yl)-3-(4-methylpiperazin-1-yl)propanamide], `COc1nnc(-c2cc(Cl)ccc2F)cc1Nc1ccnc(NC(=O)CCN2CCN(C)CC2)c1` [Example 47, N-(4-{[6-(5-chloro-2-fluorophenyl)-3-methoxypyridazin-4-yl]amino}pyridin-2-yl)-3-(4-methylpiperazin-1-yl)propanamide] is lower in Ki: 0.126 to 0.316 nM for the first, at most 0.1 nM for the second. The second binds more tightly here.

First: O=C(Nc1cc(Nc2cc(-c3cc(Cl)ccc3F)nnc2SCCO)ncn1)[C@H]1C[C@@H](N2CCN(C3CC3)CC2)C1 [Example 181, Cis N-(6-{[6-(5-chloro-2-fluorophenyl)-3-[(2-hydroxyethyl)sulfanyl]pyridazin-4-yl]amino}pyrimidin-4-yl)-3-(4-cyclopropylpiperazin-1-yl)cyclobutane-1-carboxamide]
Second: CN1CCN([C@H]2C[C@@H](C(=O)Nc3cc(Nc4cc(-c5cc(Cl)ccc5F)nnc4N(C)CC4(C)CCOC4=O)ncn3)C2)CC1 (single isomer, unassigned; enantiomer 1) [Example 143, Cis Enantiomer 1 N-(6-{[6-(5-chloro-2-fluorophenyl)-3-{methyl[(3-methyl-2-oxooxolan-3-yl)methyl]amino}pyridazin-4-yl]amino}pyrimidin-4-yl)-3-(4-methylpiperazin-1-yl)cyclobutane-1-carboxamide]
The Ki of the first is lower: at most 0.1 nM for the first, 0.126 to 0.316 nM for the second.

First: CN1CCN(CCC(=O)Nc2cc(Nc3cc(-c4cc(Cl)ccc4F)nnc3N(C)C[C@@]3(C)CCOC3=O)ccn2)CC1 (racemic) [Example 127, N-(4-{[6-(5-chloro-2-fluorophenyl)-3-{methyl[(3-methyl-2-oxooxolan-3-yl)methyl]amino}pyridazin-4-yl]amino}pyridin-2-yl)-3-(4-methylpiperazin-1-yl)propanamide]
Second: CN1CCN(CCC(=O)Nc2cc(Nc3cc(-c4cc(Cl)ccc4F)nnc3SC3(C)CCOC3=O)ccn2)CC1 (racemic) [Example 192, N-(4-{[6-(5-chloro-2-fluorophenyl)-3-[(3-methyl-2-oxooxolan-3-yl)sulfanyl]pyridazin-4-yl]amino}pyridin-2-yl)-3-(4-methylpiperazin-1-yl)propanamide]
The Ki of the first is lower: at most 0.1 nM for the first, 0.126 to 0.316 nM for the second.

`CN1CCN([C@H]2C[C@@H](C(=O)Nc3cc(Nc4cc(-c5cc(Cl)ccc5F)nnc4OC4CCOC4)ccn3)C2)CC1` (single isomer, unassigned) [Example 111, N-(4-{[6-(5-chloro-2-fluorophenyl)-3-(oxolan-3-yloxy)pyridazin-4-yl]amino}pyridin-2-yl)-3-(4-methylpiperazin-1-yl)cyclobutane-1-carboxamide] and `CN1CCN([C@H]2C[C@@H](C(=O)Nc3cc(Nc4cc(-c5cc(Cl)ccc5F)nnc4N(C)CC4(C)CCOC4=O)ncn3)C2)CC1` (single isomer, unassigned; enantiomer 2) [Example 144, Cis Enantiomer 2 N-(6-{[6-(5-chloro-2-fluorophenyl)-3-{methyl[(3-methyl-2-oxooxolan-3-yl)methyl]amino}pyridazin-4-yl]amino}pyrimidin-4-yl)-3-(4-methylpiperazin-1-yl)cyclobutane-1-carboxamide] cannot be ordered by Ki: at most 0.1 nM for the first, at most 0.1 nM for the second.

`CN1CCN(CCOc2ccc3c(Nc4cc(-c5cc(Cl)ccc5F)nnc4OCCNS(C)(=O)=O)ccnc3c2)CC1` [Example 6, N-(2-{[6-(5-chloro-2-fluorophenyl)-4-({7-[2-(4-methylpiperazin-1-yl)ethoxy]quinolin-4-yl}amino)pyridazin-3-yl]oxy}ethyl)methanesulfonamide] and `CN1CCN(CCC(=O)Nc2cc(Nc3cc(-c4cc(Cl)ccc4F)nnc3OCc3cccc(O)c3)ccn2)CC1` [Example 81, N-(4-{[6-(5-chloro-2-fluorophenyl)-3-[(3-hydroxyphenyl)methoxy]pyridazin-4-yl]amino}pyridin-2-yl)-3-(4-methylpiperazin-1-yl)propanamide] cannot be ordered by Ki: at most 0.1 nM for the first, at most 0.1 nM for the second.

`C[S+]([O-])CCCOc1nnc(-c2cc(Cl)ccc2F)cc1Nc1ccnc(N)c1` (stereo not drawn) [Example 57, N4-[6-(5-chloro-2-fluorophenyl)-3-(3-methanesulfinylpropoxy)pyridazin-4-yl]pyridine-2,4-diamine] and `CN(C)CCOc1nnc(-c2cc(Cl)ccc2F)cc1Nc1ccnc2[nH]ccc12` [Example 41, 6-(5-chloro-2-fluorophenyl)-3-[2-(dimethylamino)ethoxy]-N-{1H-pyrrolo[2,3-b]pyridin-4-yl}pyridazin-4-amine] fall in the same range of Ki: 0.398 to 3.16 nM for the first, 0.398 to 3.16 nM for the second.

`C[C@@H]1CN(CC(=O)Nc2cc(Nc3cc(-c4cc(Cl)ccc4F)nnc3SCCO)ccn2)C[C@H](C)N1` [Example 193, N-(4-{[6-(5-chloro-2-fluorophenyl)-3-[(2-hydroxyethyl)sulfanyl]pyridazin-4-yl]amino}pyridin-2-yl)-2-(3,5-dimethylpiperazin-1-yl)acetamide] and `O=C(CN1CCNCC1)Nc1cc(Nc2cc(-c3cc(Cl)ccc3F)nnc2SCCO)ccn1` [Example 60, N-(4-{[6-(5-chloro-2-fluorophenyl)-3-[(2-hydroxyethyl)sulfanyl]pyridazin-4-yl]amino}pyridin-2-yl)-2-(piperazin-1-yl)acetamide] cannot be ordered by Ki: at most 0.1 nM for the first, at most 0.1 nM for the second.

Going from `COc1nnc(-c2cc(Cl)ccc2F)cc1Nc1ccc2ncsc2c1` [Example C1, [6-(5-Chloro-2-fluorophenyl)-3-methoxypyridazin-4-yl]-1,3-benzothiazol-6-amine, reference compound] to `CNc1nnc(-c2cc(Cl)ccc2F)cc1Nc1ccnc(NC(=O)CCN2CCN(C)CC2)c1` [Example 29], the Ki falls from 6.31 nM to at most 0.1 nM. The second binds more tightly here.

Compared with `COC(=O)NCCN1CCN(CCC(=O)Nc2cc(Nc3cc(-c4cc(Cl)ccc4F)nnc3SC)ccn2)CC1` [Example 21, methyl N-[2-(4-{2-[(4-{[6-(5-chloro-2-fluorophenyl)-3-(methylsulfanyl)pyridazin-4-yl]amino}pyridin-2-yl)carbamoyl]ethyl}piperazin-1-yl)ethyl]carbamate], `CN1CCN(CCC(=O)Nc2cc(Nc3cc(-c4cc(Cl)ccc4F)nnc3OC[C@H]3C[C@@](C)(O)C3)ccn2)CC1` [Example 123, N-(4-{[6-(5-chloro-2-fluorophenyl)-3-[(3-hydroxy-3-methylcyclobutyl)methoxy]pyridazin-4-yl]amino}pyridin-2-yl)-3-(4-methylpiperazin-1-yl)propanamide] is higher in Ki: at most 0.1 nM for the first, 0.126 to 0.316 nM for the second. The first binds more tightly here.

`CN1C[C@@H]2C[C@H]1CN2[C@H]1C[C@@H](C(=O)Nc2cc(Nc3cc(-c4cc(Cl)ccc4F)nnc3SCCO)ccn2)C1` [Example 87, Cis N-(4-{[6-(5-chloro-2-fluorophenyl)-3-[(2-hydroxyethyl)sulfanyl]pyridazin-4-yl]amino}pyridin-2-yl)-3-[(1S,4S)-5-methyl-2,5-diazabicyclo[2.2.1]heptan-2-yl]cyclobutane-1-carboxamide] and `CN1CCN(CCC(=O)Nc2cc(Nc3cc(-c4cc(Cl)ccc4F)nnc3OCC3COC(C)(C)O3)ccn2)CC1` (stereo not drawn) [Example 77, N-(4-{[6-(5-chloro-2-fluorophenyl)-3-[(2,2-dimethyl-1,3-dioxolan-4-yl)methoxy]pyridazin-4-yl]amino}pyridin-2-yl)-3-(4-methylpiperazin-1-yl)propanamide] cannot be ordered by Ki: at most 0.1 nM for the first, at most 0.1 nM for the second.
